Converted amounts (≈) assume the structure as drawn. Residues, ends and D or L forms follow the SMILES beside them. *: point of attachment. Fmoc = O=C(OCC1c2ccccc2-c2ccccc21)*
Columns and labels:
[1] = cited from earlier work
Text: Hydrogels are matrices able to absorb water and swell in the media without dissolving. The calculated degree of swelling (q) was 55.2%, 56.6%, and 54.3% for Fmoc-K1, Fmoc-K2, and Fmoc-K3, respectively.

3T3-L1 cells [2] = type: cell-based, mouse; settings: for Cell adhesion (% of adherent viable cells on seeded cells): 16 h; for cell viability of adherent cells: 72 h
Method: (§1) Aneuploid immortal keratinocyte cell line HaCat and mouse pre-adipocyte cell line 3T3-L1 were obtained from IRCCS-SDN Biobank (10.5334/ojb.26) and grown in Dulbecco’s Modified Medium (DMEM) supplemented with 10% fetal bovine serum (FBS) and 1% GlutaMAX. Cells were incubated at 37 °C and 5% CO2 and seeded in 100 mm culture dishes.
For the adhesion test, 3T3-L1 cells were seeded in 96-well plates at a density of 0.5 ×10^4 cells per well. Before seeding, each well was filled with the indicated hydrogels; 16 h after seeding, cells were stained with Acridine Orange/Propidium Iodide stain. Cell adhesion was reported as % of adherent viable cell (fluorescing green) on total plated cells. Viability upon adhesion was reported as % viable cells and total adherent cells. Duplication rate was reported as the ratio between viable cells upon 48 h from seeding and the number of viable adherent cells upon 16 h from seeding. In order to test the toxicity of hydrogels conditioned media, we used MTS assay, (CellTiter 96® AQueous One Solution Cell Proliferation Assay, Promega, Italy). For MTS assays, HaCat and 3T3-L1 cells were seeded in 96-well plates at a density of 0.7 × 10^4 cells per well. To obtain the conditioned media, hydrogels formed in a hollow plastic chamber sealed at one end with a porous membrane, were incubated with 2 mL of completed DMEM medium for 16 h in sterile condition at RT [23]. No color change of the media was detected following the incubation and the tested pH value (7.5–7.8) was suitable for culturing added to the wells. The conditioned media were used to grow the cells for 24, 48, and 72 h. At the end of the treatment, cell viability was assessed by the MTS assay. In brief, MTS was added to the cells at a final concentration of 0.5 mg/mL. After 30 min of incubation at 37 °C, the samples were analyzed using the VICTOR Nivo (Perkin Elmer, Buckinghamshire, UK) at 490 nm absorbance. Cell survival was expressed as percentage of viable cells in the presence of hydrogels, compared to control cells grown in their absence. MTS assay was repeated twice with similar results.
To test the ability of the three hydrogels to support in vitro growth of eukaryotic cells, we culture 3T3-L1 (mouse fibroblast) cells on Fmoc-K1, K2, and K3. As first, we measured the number of cells able to adhere to hydrogels. An efficient cell adhesion is necessary for an optimal growth of the culture, and growth-supports un-favoring cell adhesion cause cell cycle arrest and induce apoptosis. […] Compared to cells plated in the absence of hydrogels, Fmoc-K1 and Fmoc-K2 disfavored cell adhesion, allowing cell attachment to 20 ± 3%, 36 ± 8% of the seeded cells, respectively.

[3] = In vitro hydrogel degradation in Ringer's solution; type: physicochemical; settings: hydrogel with 1.5 mL Ringer’s solution at 37 °C for 20 days (method: 40 days); ΔW = (Wo − Wt)/Wo
Method: In vitro hydrogel degradation assay was performed by adding a fixed amount (1.5 mL) of Ringer’s solution (12.9 mg of NaCl, 0.45 mg of KCl and 0.48 mg of CaCl2) to the preformed hydrogels and by placing them in an oven at 37 °C for 40 days. Hydrogels were weighed before the addition of the Ringer’s solution (Wo) and after its removal (Wt). The weight loss ratio (ΔW) was calculated as percentage according to Equation (2) ΔW = ((Wo − Wt))/Wo %(2)
As potential tissue engineering matrices, PHG materials would be directly exposed to biological fluids. According to this consideration, the degradation test was performed to evaluate the matrices stability in an in vivo mimetic environment. The biological setting was mimed, incubating the hydrogels with Ringer’s solution at 37 °C for 20 days. The stability, reported as ΔW, calculated using Equation (2), was estimated as weight loss. ΔW values determined for Fmoc-K1, Fmoc-K2, and Fmoc-K3 were 43.2, 39.7, and 41.8%, respectively. In comparison to other FmocFF peptide-based hydrogels, all tested samples undergo faster and more remarkable degradation. This behavior is probably ascribable to the less rigid nature of Fmoc-K HGs. As an alternative, it can also be hypothesized that the large amount of salt in the Ringer’s solution could improve the solubility of K peptides and, in turn, accelerate the loss of 3D-organization of the matrix. It is worth it to note that an efficient in vivo degradation by biological fluids of hydrogels in their single components could allow achieving a rapid excretion of the matrix, which means a high biocompatibility.

[4] = Water solubility of peptides; type: physicochemical; settings: from solid: 10 mg lyophilized peptide in 1.0 mL water, sonicated 30 min at room temperature, centrifuged 5 min 13,000 rpm; UV at 301 nm (ε 7800 M^−1 cm^−1)
Method: Peptide solutions were prepared by dissolving 10 mg of each lyophilized peptide in 1.0 mL of water. These suspensions were sonicated for 30 min at room temperature; after centrifugation (5 min at 13,000 rpm), the concentration was spectroscopically determined on UV–Vis Thermo Fisher Scientific Inc. (Wilmington, DE, USA) NanoDrop 2000 c spectrophotometer equipped with a 1.0 cm quartz cuvette (Hellma). The quantification of the concentration was assessed using the molar absorptivity (ε) of 7800 M^−1 cm^−1 for Fmoc group at λ = 301 nm.
Due to their different sequence, each peptide has a different water solubility (see Table 2). […] The capability of peptides to self-assemble was initially checked by fluorescence spectroscopy, recording the emission spectra at the maximum concentration of the peptide. Peptides containing the FF motif were excited at both 257 and 301 nm, which corresponded to the excitation wavelength of phenyl and the Fmoc group, respectively, whereas peptides lacking FF were excited only at 301 nm. All the peptide derivatives, upon excitation at 301 nm, have an emission peak at 328 nm, red-shifted of 15 nm, with respect to the peak at 313 nm, which is expected for the monomeric form (see Figure S6).

3T3-L1 cells [5] = type: cell-based, mouse; settings: 24 h
Method: as §1
For the adhesion test, 3T3-L1 cells were seeded in 96-well plates at a density of 0.5 ×10^4 cells per well. Before seeding, each well was filled with the indicated hydrogels; 16 h after seeding, cells were stained with Acridine Orange/Propidium Iodide stain. Cell adhesion was reported as % of adherent viable cell (fluorescing green) on total plated cells. Viability upon adhesion was reported as % viable cells and total adherent cells. […] No color change of the media was detected following the incubation and the tested pH value (7.5–7.8) was suitable for culturing added to the wells. […] At the end of the treatment, cell viability was assessed by the MTS assay. […] After 30 min of incubation at 37 °C, the samples were analyzed using the VICTOR Nivo (Perkin Elmer, Buckinghamshire, UK) at 490 nm absorbance. Cell survival was expressed as percentage of viable cells in the presence of hydrogels, compared to control cells grown in their absence. […]

Compound	swelling degree [1]	cell death of the attached cells (3T3-L1 cells [2]) [%]	Cell adhesion (% of adherent viable cells on seeded cells) (3T3-L1 cells [2]) [%]	cell viability of adherent cells (3T3-L1 cells [2]) [%]	weight loss ratio ΔW (stability) [3] [%]	solubility thermodynamic at 30 min [4] [mg/mL]	viability (cell survival vs control) (3T3-L1 cells [5])
Fmoc-diphenylalanine [FmocFF]	around 40%						
CC[C@H](C)[C@H](NC(=O)[C@H](C)NC(=O)OCC1c2ccccc2-c2ccccc21)C(=O)N[C@H](C(=O)N[C@@H](C)C(=O)NCC(=O)N[C@@H](CCCCN)C(N)=O)C(C)C [Fmoc-K3] (Fmoc-AIVAGK-NH2)		3 ± 1	85 ± 12	94 ± 3	41.8	3.21 (≈ 4120 µM)	
CC[C@H](C)[C@H](NC(=O)[C@H](C)NC(=O)[C@H](Cc1ccccc1)NC(=O)[C@H](Cc1ccccc1)NC(=O)OCC1c2ccccc2-c2ccccc21)C(=O)N[C@H](C(=O)N[C@@H](C)C(=O)NCC(=O)N[C@@H](CCCCN)C(N)=O)C(C)C [FmocFF-K3] (Fmoc-FFAIVAGK-NH2)						0.345 (≈ 321 µM)	
CC[C@H](C)[C@H](NC(=O)[C@H](CC(C)C)NC(=O)OCC1c2ccccc2-c2ccccc21)C(=O)N[C@H](C(=O)N[C@@H](C)C(=O)NCC(=O)N[C@@H](CCCCN)C(N)=O)C(C)C [Fmoc-K2] (Fmoc-LIVAGK-NH2)		11 ± 2	36 ± 8	95 ± 3	39.7	2.56 (≈ 3120 µM)	
CC[C@H](C)[C@H](NC(=O)OCC1c2ccccc2-c2ccccc21)C(=O)N[C@@H](CC(C)C)C(=O)N[C@H](C(=O)N[C@@H](C)C(=O)NCC(=O)N[C@@H](CCCCN)C(N)=O)C(C)C [Fmoc-K1] (Fmoc-ILVAGK-NH2)		9 ± 3	20 ± 3	92 ± 3	43.2	1.24 (≈ 1510 µM)	above 70%
CC[C@H](C)[C@H](NC(=O)[C@H](CC(C)C)NC(=O)[C@H](Cc1ccccc1)NC(=O)[C@H](Cc1ccccc1)NC(=O)OCC1c2ccccc2-c2ccccc21)C(=O)N[C@H](C(=O)N[C@@H](C)C(=O)NCC(=O)N[C@@H](CCCCN)C(N)=O)C(C)C [FmocFF-K2] (Fmoc-FFLIVAGK-NH2)						0.253 (≈ 227 µM)	
CC[C@H](C)[C@H](NC(=O)[C@H](Cc1ccccc1)NC(=O)[C@H](Cc1ccccc1)NC(=O)OCC1c2ccccc2-c2ccccc21)C(=O)N[C@@H](CC(C)C)C(=O)N[C@H](C(=O)N[C@@H](C)C(=O)NCC(=O)N[C@@H](CCCCN)C(N)=O)C(C)C [FmocFF-K1] (Fmoc-FFILVAGK-NH2)						0.508 (≈ 455 µM)	

From article PMC8232644, “Self-Supporting Hydrogels Based on Fmoc-Derivatized Cationic Hexapeptides for Potential Biomedical Applications” (Biomedicines, 2021)
